According to publication PMC9352230 (ACS Omega, 2022):

Tests used:
[1] = test system: MCF7 (human breast cancer cell line); assay: MTT cytotoxicity assay, MCF7; format: cell-based; details: MCF7, 24 h, read-out: MCF7 (% inhibition ±SD)
[2] = test system: HEK293 (human embryonic kidney cell line); assay: MTT cytotoxicity assay, HEK293; format: cell-based; details: Homo sapiens, HEK293, 24 h, read-out: HEK293 (% inhibition ±SD)
ENPP3 = molecular target: T1, ENPP3 (Homo sapiens, UniProt O14638); assay: ENPP3 enzyme inhibition assay; format: biochemical; details: for inhibition at 100 µM: read-out: ENPP3 % inhibition ± SD
T1 sequence (O14638 1-875): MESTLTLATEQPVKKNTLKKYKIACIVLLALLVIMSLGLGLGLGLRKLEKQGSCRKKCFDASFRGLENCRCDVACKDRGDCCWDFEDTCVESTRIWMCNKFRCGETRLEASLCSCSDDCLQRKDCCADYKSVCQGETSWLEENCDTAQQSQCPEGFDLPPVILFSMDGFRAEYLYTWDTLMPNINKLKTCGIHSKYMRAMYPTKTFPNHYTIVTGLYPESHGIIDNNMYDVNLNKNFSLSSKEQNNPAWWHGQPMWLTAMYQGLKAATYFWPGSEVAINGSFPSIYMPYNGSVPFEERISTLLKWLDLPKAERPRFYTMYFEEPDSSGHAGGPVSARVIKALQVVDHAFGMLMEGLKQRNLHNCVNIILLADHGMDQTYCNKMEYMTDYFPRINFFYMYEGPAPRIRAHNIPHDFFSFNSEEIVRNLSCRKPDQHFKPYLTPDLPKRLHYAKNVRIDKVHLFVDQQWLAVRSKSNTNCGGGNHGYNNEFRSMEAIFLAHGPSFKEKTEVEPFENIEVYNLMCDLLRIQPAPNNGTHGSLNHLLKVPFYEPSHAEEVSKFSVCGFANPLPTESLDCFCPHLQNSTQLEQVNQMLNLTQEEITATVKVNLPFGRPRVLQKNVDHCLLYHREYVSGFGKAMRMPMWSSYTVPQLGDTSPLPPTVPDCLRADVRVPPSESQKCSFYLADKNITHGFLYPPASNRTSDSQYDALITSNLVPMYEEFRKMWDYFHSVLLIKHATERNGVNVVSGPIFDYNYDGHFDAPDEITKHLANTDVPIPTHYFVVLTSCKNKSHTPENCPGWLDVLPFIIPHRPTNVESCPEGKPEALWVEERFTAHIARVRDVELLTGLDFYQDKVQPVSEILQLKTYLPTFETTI

ENPP1 = molecular target: T2, ENPP1 (Homo sapiens, UniProt P22413); assay: ENPP1 enzyme inhibition assay; format: biochemical; details: for inhibition at 100 µM: read-out: ENPP1 % inhibition ± SD
T2 sequence (P22413 1-925): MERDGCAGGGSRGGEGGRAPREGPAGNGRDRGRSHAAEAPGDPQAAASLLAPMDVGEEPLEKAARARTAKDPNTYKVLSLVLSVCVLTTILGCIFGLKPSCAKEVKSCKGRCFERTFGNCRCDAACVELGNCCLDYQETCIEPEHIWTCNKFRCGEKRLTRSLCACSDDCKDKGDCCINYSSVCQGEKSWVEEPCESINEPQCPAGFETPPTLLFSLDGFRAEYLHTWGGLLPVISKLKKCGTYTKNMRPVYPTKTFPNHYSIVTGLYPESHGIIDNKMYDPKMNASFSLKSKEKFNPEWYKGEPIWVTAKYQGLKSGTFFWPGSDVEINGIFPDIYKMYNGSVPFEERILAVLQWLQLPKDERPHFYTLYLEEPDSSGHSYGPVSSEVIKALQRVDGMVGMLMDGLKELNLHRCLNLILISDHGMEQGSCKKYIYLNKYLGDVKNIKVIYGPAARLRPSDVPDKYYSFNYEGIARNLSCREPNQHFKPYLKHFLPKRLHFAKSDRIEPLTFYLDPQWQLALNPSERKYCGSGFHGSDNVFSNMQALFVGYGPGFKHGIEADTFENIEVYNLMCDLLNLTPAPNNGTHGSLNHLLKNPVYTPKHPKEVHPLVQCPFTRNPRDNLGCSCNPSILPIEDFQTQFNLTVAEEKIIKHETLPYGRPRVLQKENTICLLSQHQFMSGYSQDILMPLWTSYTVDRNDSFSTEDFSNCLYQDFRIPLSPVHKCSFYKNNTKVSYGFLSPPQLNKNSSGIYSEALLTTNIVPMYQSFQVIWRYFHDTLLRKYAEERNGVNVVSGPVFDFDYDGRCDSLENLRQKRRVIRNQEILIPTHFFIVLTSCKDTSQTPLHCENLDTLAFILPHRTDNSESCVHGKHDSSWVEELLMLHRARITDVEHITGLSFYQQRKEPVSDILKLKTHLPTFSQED

Compound	inhibition at 100 µM [1]	inhibition at 100 µM [2]	inhibition at 100 µM (ENPP3)	inhibition at 100 µM (ENPP1)	IC50 (ENPP3)	IC50 (ENPP1)
Cc1ccc(C(=O)Nc2ccc(OS(=O)(=O)c3ccc(C)cc3)cc2)cc1 [4a, 4-(4-Methylbenzamido)phenyl 4-Methylbenzenesulfonate]	1.1 ± 0.12%	5.3 ± 0.81%	17 ± 3.24%	26.2 ± 2.11%	–	–
Cc1ccc(C(=O)Nc2ccc(OS(=O)(=O)c3ccccc3)cc2)cc1 [4b, 4-(4-methylbenzamido)phenyl Benzenesulfonate]	7.4 ± 0.04%	6.4 ± 0.22%	–	45.2 ± 1.53%	29800 ± 2130 nM	–
Cc1ccc(C(=O)Nc2ccc(OS(=O)(=O)c3ccc(I)cc3)cc2)cc1 [4c, 4-(4-methylbenzamido)phenyl 4-Iodobenzenesulfonate]	33.2 ± 1.32%	15.2 ± 0.83%	–	–	4230 ± 380 nM	14400 ± 540 nM
COc1ccc(S(=O)(=O)Oc2ccc(NC(=O)c3ccc(C)cc3)cc2)cc1 [4d, 4-(4-Methylbenzamido)phenyl 4-Methoxybenzenesulfonate]	31.5 ± 2.43%	13.1 ± 0.73%	45.7 ± 2.35%	–	–	180 ± 10 nM
Cc1ccc(C(=O)Nc2ccc(OS(=O)(=O)c3ccc(Cl)cc3)cc2)cc1 [4e, 4-(4-Methylbenzamido)phenyl 4-Chlorobenzenesulfonate]	24.2 ± 1.73%	8.3 ± 0.35%	–	44.8 ± 1.52%	820 ± 120 nM	–
CCCc1ccc(S(=O)(=O)Oc2ccc(NC(=O)c3ccc(C)cc3)cc2)cc1 [4f, 4-(4-Methylbenzamido)phenyl 4-Propylbenzenesulfonate]	25.7 ± 0.92%	4.2 ± 0.12%	8.4 ± 3.11%	–	–	–
Cc1ccc(C(=O)Nc2ccc(OS(=O)(=O)c3ccc(OC(F)(F)F)cc3)cc2)cc1 [4g, 4-(4-Methylbenzamido)phenyl 4-(Trifluoromethoxy)benzenesulfonate]	11.7 ± 0.84%	3.2 ± 0.11%	–	–	190 ± 20 nM	450 ± 70 nM
Cc1ccc(C(=O)Nc2ccc(OS(=O)(=O)c3ccc(-c4ccccc4)cc3)cc2)cc1 [4h, 4-(4-Methylbenzamido)phenyl [1,1′-Biphenyl]-4-sulfonate]	9.1 ± 0.71%	4.8 ± 0.24%	27.1 ± 4.54%	–	–	1730 ± 30 nM
Cc1ccc(C(=O)Nc2ccc(OS(=O)(=O)Cc3ccccc3)cc2)cc1 [4i, 4-(4-Methylbenzamido)phenyl Phenylmethanesulfonate]	5.7 ± 0.06%	11.2 ± 0.92%	46.7 ± 1.54%	–	–	130 ± 10 nM
Cc1ccc(C(=O)Nc2ccc(OS(=O)(=O)c3ccc(F)cc3)cc2)cc1 [4k, 4-(4-Methylbenzamido)phenyl 4-Fluorobenzenesulfonate]	11.2 ± 0.52%	2.1 ± 1.22%	–	–	370 ± 80 nM	7610 ± 20 nM
Cc1ccc(C(=O)Nc2ccc(OS(=O)(=O)c3ccccc3F)cc2)cc1 [4l, 4-(4-Methylbenzamido)phenyl 2-Fluorobenzenesulfonate]	0.5 ± 0.03%	17.4 ± 0.83%	–	–	3480 ± 340 nM	150 ± 10 nM
COc1ccc(S(=O)(=O)Oc2ccc(NC(=O)c3ccccc3)cc2)cc1 [4m, 4-Benzamidophenyl 4-Methoxybenzenesulfonate]	4.1 ± 0.01%	2.3 ± 1.12%	22.6 ± 2.12%	–	–	820 ± 50 nM
O=C(Nc1ccc(OS(=O)(=O)Cc2ccccc2)cc1)c1ccccc1 [4n, 4-Benzamidophenyl Phenylmethanesulfonate]	7.3 ± 0.03%	5.8 ± 0.23%	–	–	4120 ± 50 nM	3960 ± 120 nM
CCCc1ccc(S(=O)(=O)Oc2ccc(NC(=O)c3ccccc3)cc2)cc1 [4o, 4-Benzamidophenyl 4-Propylbenzenesulfonate]	63.2 ± 2.51%	12.6 ± 0.74%	–	–	2120 ± 80 nM	1710 ± 40 nM
O=C(Nc1ccc(OS(=O)(=O)c2ccc(-c3ccccc3)cc2)cc1)c1ccccc1 [4p, 4-Benzamidophenyl [1,1′-Biphenyl]-4-sulfonate]	8.4 ± 0.75%	4.3 ± 0.15%	33.5 ± 1.92%	–	–	1510 ± 20 nM
O=C(Nc1ccc(OS(=O)(=O)c2cccc3cccnc23)cc1)c1ccccc1 [4q, 4-Benzamidophenyl Quinoline-8-sulfonate]	11.2 ± 1.04%	4.6 ± 0.32%	19.5 ± 3.53%	–	–	370 ± 30 nM
O=C(Nc1ccc(OS(=O)(=O)c2ccc(I)cc2)cc1)c1ccccc1 [4r, 4-Benzamidophenyl 4-Iodobenzenesulfonate]	10.2 ± 0.86%	11.3 ± 0.71%	–	–	530 ± 190 nM	2010 ± 340 nM
O=C(Nc1ccc(OS(=O)(=O)c2ccc(F)cc2)cc1)c1ccccc1 [4s, 4-Benzamidophenyl 4-Fluorobenzenesulfonate]	2.1 ± 0.08%	20.6 ± 1.14%	–	–	2950 ± 250 nM	5760 ± 570 nM
O=C(Nc1ccc(OS(=O)(=O)c2ccc(OC(F)(F)F)cc2)cc1)c1ccccc1 [4t, 4-Benzamidophenyl 4-(trifluoromethoxy)benzenesulfonate]	29.6 ± 1.22%	8.6 ± 0.14%	–	41.4 ± 3.24%	150 ± 40 nM	–
CC1(C(=O)Nc2ccc(OS(=O)(=O)c3ccccc3F)cc2)c2ccccc2-c2ccccc21 [7a, 4-(9-Methyl-9H-fluorene-9-carboxamido)phenyl 2-Fluorobenzenesulfonate]	12.7 ± 0.62%	14.6 ± 1.12%	28.2 ± 3.22%	–	–	810 ± 50 nM
CC1(C(=O)Nc2ccc(OS(=O)(=O)C(F)(F)F)cc2)c2ccccc2-c2ccccc21 [7b, 4-(9-Methyl-9H-fluorene-9-carboxamido)phenyl Trifluoromethanesulfonate]	14.1 ± 0.63%	24.5 ± 1.16%	–	–	4160 ± 220 nM	900 ± 160 nM
CC1(C(=O)Nc2ccc(OS(=O)(=O)c3ccc(F)cc3)cc2)c2ccccc2-c2ccccc21 [7c, 4-(9-Methyl-9H-fluorene-9-carboxamido)phenyl 4-Fluorobenzenesulfonate]	12.4 ± 1.22%	9.2 ± 0.42%	–	–	6690 ± 1890 nM	500 ± 30 nM
CC1(C(=O)Nc2ccc(OS(C)(=O)=O)cc2)c2ccccc2-c2ccccc21 [7d, 4-(9-Methyl-9H-fluorene-9-carboxamido)phenyl Methanesulfonate]	0.2 ± 0.06%	5.5 ± 0.36%	–	9.2 ± 4.13%	160 ± 10 nM	–
CC1(C(=O)Nc2ccc(OS(=O)(=O)c3ccccc3)cc2)c2ccccc2-c2ccccc21 [7f, 4-(9-Methyl-9H-fluorene-9-carboxamido)phenyl Benzenesulfonate]	5.6 ± 1.11%	6.2 ± 1.17%	42.1 ± 2.44%	–	–	8450 ± 250 nM
COc1cccc2c1C(=O)c1c(O)c3c(c(O)c1C2=O)C[C@@](O)(C(=O)CO)C[C@@H]3O[C@H]1C[C@H](N)[C@H](O)[C@H](C)O1 [doxorubicin, reference compound]	88.8 ± 2.74%	–	–	–	–	–
